Source: ChEMBL document CHEMBL4270638, “Sulfonyl-containing phenyl-pyrrolyl pentane analogues: Novel non-secosteroidal vitamin D receptor modulators with favorable physicochemical properties, pharmacokinetic properties and anti-tumor activity” (Eur J Med Chem, 2018)

Tests used:
Type in all cases: functional, cell-based
[1] = system: BXPC-3; experiment: Antiproliferative activity against human BxPC3 cells after 24 hrs by MTT assay; conditions: BXPC-3, 24 h
[2] = system: PC-3; experiment: Antiproliferative activity against human PC3 cells after 24 hrs by MTT assay; conditions: PC-3, 24 h
[3] = system: MCF7; experiment: Antiproliferative activity against human MCF7 cells after 24 hrs by MTT assay; conditions: MCF7, 24 h

IC50 [1] [µM] | IC50 [2] [µM] | IC50 [3] [µM] | Compound
10 | 7.79 | 10.6 | CCn1c(C(=O)N[C@H](C)CO)ccc1C(CC)(CC)c1ccc(OCS(=O)(=O)c2ccccc2)c(C)c1
13.9 | 3.07 | 44.7 | CCn1c(C(=O)N[C@@H](C(=O)O)C(C)C)ccc1C(CC)(CC)c1ccc(OCS(=O)(=O)c2ccccc2)c(C)c1
> 50 | > 50 | > 50 | CCn1c(C(=O)NCCNC(=O)OC(C)(C)C)ccc1C(CC)(CC)c1ccc(OCS(=O)(=O)c2ccccc2)c(C)c1
> 50 | 6.81 | 31.4 | CCn1c(C(=O)N[C@H](CO)CCCO)ccc1C(CC)(CC)c1ccc(OCS(=O)(=O)c2ccccc2)c(C)c1
> 50 | > 50 | > 50 | CCn1c(C(=O)N[C@H](C)C(=O)OC)ccc1C(CC)(CC)c1ccc(OCS(=O)(=O)c2ccccc2)c(C)c1
18.3 | 9.85 | 20.7 | CCn1c(C(=O)NC(C)(C)CO)ccc1C(CC)(CC)c1ccc(OCS(=O)(=O)c2ccccc2)c(C)c1
> 50 | > 50 | > 50 | CCn1c(C(=O)N[C@H](CC(=O)O)C(=O)O)ccc1C(CC)(CC)c1ccc(OCS(=O)(=O)c2ccccc2)c(C)c1
45.4 | 3.56 | 28.8 | CCn1c(C(=O)NC2(CO)CC2)ccc1C(CC)(CC)c1ccc(OCS(=O)(=O)c2ccccc2)c(C)c1
26.6 | 11.3 | 42 | CCn1c(C(=O)NCCCO)ccc1C(CC)(CC)c1ccc(OCS(=O)(=O)c2ccccc2)c(C)c1
16.4 | 13.4 | 29.6 | CCn1c(C(=O)N[C@@H](CO)CCCO)ccc1C(CC)(CC)c1ccc(OCS(=O)(=O)c2ccccc2)c(C)c1
17.9 | > 50 | 43.7 | CCn1c(C(=O)N[C@@H](C)C(=O)OC)ccc1C(CC)(CC)c1ccc(OCS(=O)(=O)c2ccccc2)c(C)c1
20 | > 50 | > 50 | CCn1c(C(=O)NCC(=O)OC)ccc1C(CC)(CC)c1ccc(OCS(=O)(=O)c2ccccc2)c(C)c1
20.1 | 20.1 | > 50 | CCn1c(C(=O)N[C@H](C)C(=O)O)ccc1C(CC)(CC)c1ccc(OCS(=O)(=O)c2ccccc2)c(C)c1
> 50 | 40.4 | > 50 | CCn1c(C(=O)NCCC(=O)OC)ccc1C(CC)(CC)c1ccc(OCS(=O)(=O)c2ccccc2)c(C)c1
13.2 | 10.6 | 18.8 | CCn1c(C(=O)N[C@@H](CO)C(C)C)ccc1C(CC)(CC)c1ccc(OCS(=O)(=O)c2ccccc2)c(C)c1
> 50 | 14.4 | > 50 | CCn1c(C(=O)NCCC(=O)O)ccc1C(CC)(CC)c1ccc(OCS(=O)(=O)c2ccccc2)c(C)c1
33.7 | 46.7 | 14.7 | CCN(CC)CCNC(=O)c1ccc(C(CC)(CC)c2ccc(OCS(C)(=O)=O)c(C)c2)n1CC
> 50 | > 50 | > 50 | CCn1c(C(=O)N[C@@H](CCC(=O)O)C(=O)O)ccc1C(CC)(CC)c1ccc(OCS(=O)(=O)c2ccccc2)c(C)c1
15.9 | 12.1 | 28.5 | CCn1c(C(=O)N[C@H](CO)CCO)ccc1C(CC)(CC)c1ccc(OCS(=O)(=O)c2ccccc2)c(C)c1
30.4 | 36.6 | 16.3 | CCN(CC)CCNC(=O)c1cc(C(CC)(CC)c2ccc(OCS(C)(=O)=O)c(C)c2)cn1CC
> 50 | > 50 | > 50 | CCn1c(C(=O)N[C@@H](CC(=O)O)C(=O)O)ccc1C(CC)(CC)c1ccc(OCS(=O)(=O)c2ccccc2)c(C)c1
> 50 | 14.1 | 27.4 | CCn1c(C(=O)N[C@@H](CO)CCO)ccc1C(CC)(CC)c1ccc(OCS(=O)(=O)c2ccccc2)c(C)c1
